Where “and” joins values, the source holds several entries; their conditions need not be identical. Identical values can stand only once.
Columns and labels:
[1] = tested on: SW48 (Gastric); test: MTT in vitro cytotoxicity, 72 hour incubation; format: cell-based; settings: Homo sapiens, MTT assay, SW48 cells
Experimental: (§1) The in vitro cytotoxicity of a selection of compounds was determined in a panel of cell lines using the standard MTT assay for a 72 hour incubation period (Table 1).
(§2) Tumor cell lines were maintained in RPMI1640 medium supplemented with 10% heat-inactivated fetal bovine serum, 2 mM L-glutamine and 1 mM sodium pyruvate. 1800 cells per well were seeded in a volume of 180 μl in a 96-well flat bottom polystyrene plate. The cells were allowed to adhere overnight at 37° C. in a CO2 incubator. Ligands were initially formulated in DMSO, and stocks stored at −80° C. They were then further formulated at lox concentration in RPMI1640 medium. 20 μl of diluted samples were added into each treatment well. On each plate, blank wells with no cells, and untreated wells containing cells, were included. Plates were then cultured at 37° C. in a CO2 incubator for 72 hrs. Cytotoxicity was evaluated using a tetrazolium salt-based assay, the MTT assay. After 72 hours, the supernatant was removed from each well and 200 μl of a sterile filtered 500 μg/ml MTT solution in water added to each well. The plates were then incubated at 37° C. in a CO2 incubator for 4 hrs. The supernatant was then removed and the formazan crystals formed solubilized by adding 150 μl of DMSO to each well. The plate was then read on a plate reader at 540 nm, and percentage cell survival calculated as follows: ((mean absorbance treated wells at concentration×−mean absorbance blank wells)÷(mean absorbance untreated wells at concentration×−mean absorbance blank wells))×100. Data were plotted as concentration in nM vs. % cell survival in Microsoft Excel, and IC50 values (concentration where cell survival is reduced by a half) were determined from the graph.

[2] = tested on: SW620 (Gastric); test: MTT in vitro cytotoxicity, 72 hour incubation; format: cell-based; settings: Homo sapiens, SW-620, MTT assay, SW620 cells
Experimental: as §1, §2

[3] = tested on: LIM1215 (Gastric); test: MTT in vitro cytotoxicity, 72 hour incubation; format: cell-based; settings: MTT assay, LIM1215 cells
Experimental: as §1, §2

[4] = tested on: Jurkat (Leukaemia); test: MTT in vitro cytotoxicity, 72 hour incubation; format: cell-based; settings: Homo sapiens, MTT assay, Jurkat cells
Experimental: as §1, §2

[5] = tested on: RAJI (Lymphoma); test: MTT in vitro cytotoxicity, 72 hour incubation; format: cell-based; settings: Homo sapiens, MTT assay, RAJI cells
Experimental: as §1, §2

[6] = tested on: JVM2 (Lymphoma); test: MTT in vitro cytotoxicity, 72 hour incubation; format: cell-based; settings: Homo sapiens, JVM-2, MTT assay, JVM2 cells
Experimental: as §1, §2

[7] = Hydrophobicity investigation of free payloads by UPLC (hydrophobicity model); format: physicochemical; settings: single runs 1-3 (triplicate), 0.1% TFA water/acetonitrile gradient
Experimental: Both mobile phases were filtered through 0.22 μm filters and degassed by sonication under argon. Caffeine (Merck, UPLC grade) was employed a standard. Blank solvent samples (i.e., DMSO) were used during sample runs to confirm lack of carryover between injections and to monitor column performance.
UPLC-MS analysis was performed on a Waters Acquity H-Class Ultra-Performance Liquid Chromatography (UPLC) System equipped with an Acquity UPLC BEH, […] 50×2.10 mm (Waters, UK) column and a photodiode array detector […], using Waters MassLynx software. The gradient system used for LC analysis consisted of 0.1% trifluoroacetic acid (TFA) in water as Solvent A, and 0.1% trifluoroacetic acid (TFA) in acetonitrile as Solvent B. TFA was purchased from Merck (UK), and diluted to the required concentration with UPLC grade water and acetonitrile for Solvent A and Solvent B, respectively. TFA was added to ensure acidic conditions throughout the analysis. A flow rate of 0.4 mL/min was used, and the detection wavelength was 254 nm. Mass spectrometry data were collected using a Waters SQ Detector 2 coupled to a Waters Acquity H Class UPLC and a Photo Diode Array Detector (ACQ-PDA). The Waters SQ Detector 2 parameters were set to: Capillary (kV), 3.00; Cone (V), 30; De-solvation Temperature (° C.), 600; Cone flow rate (L/h), 50; De-solvation flow rate (L/h), 600.
Gradient method used: from 95% A/5% B to 20% B over 5 min. Then from 20% B to 60% B over 35 min, followed by from 60% B to 85% B over 10 min. It was further changed from 85% B to 90% B over 5 min and kept for a further 5 min. Finally, from 90% B to 95% B over 2.5 min, and then to 20% B over 2.5 min. 10 μL was split via a zero-dead volume T-piece which passed into the mass spectrometer.
Compounds were provided in powder form and were dissolved in DMSO to achieve 5 mM stock solution. This solution was then diluted to 500 μM with 50% acetonitrile/50% water.
A number of commercially available ADC payloads and internal reference compounds were also incorporated into the analysis, and their structures are presented in Table 3.

## CNS(=O)(=O)c1ccc(C2=CCN3C(=O)c4cc(OC)c(OCc5cccc(CC(=O)N6C[C@@H](CCl)c7c6cc(O)c6ccccc76)c5)cc4N=C[C@@H]3C2)cc1 [Compound 31, 4-((S)-3-((3-(2-((S)-1-(Chloromethyl)-5-hydroxy-1,2-dihydro-3H-benzo[e]indol-3-yl)-2-oxoethyl)benzyl)oxy)-2-methoxy-12-oxo-6a,7,10,12-tetrahydrobenzo[e]pyrido[1,2-a][1,4]diazepin-8-yl)-N-methylbenzenesulfonamide]
[1]
  IC50: 1.3 nM
[2]
  IC50: 0.35 nM
[3]
  IC50: 2.7 nM

## CNS(=O)(=O)c1ccc(C2=CCN3C(=O)c4cc(OC)c(OCc5cccc(CC(=O)N6C[C@@H](CCl)c7c6cc(O)c6ccccc76)n5)cc4N=C[C@@H]3C2)cc1 [Compound 35, 4-((S)-3-((6-(2-((S)-1-(Chloromethyl)-5-hydroxy-1,2-dihydro-3H-benzo[e]indol-3-yl)-2-oxoethyl)pyridin-2-yl)methoxy)-2-methoxy-12-oxo-6a,7,10,12-tetrahydrobenzo[e]pyrido[1,2-a][1,4]diazepin-8-yl)-N-methylbenzenesulfonamide]
[1]
  IC50: 3.15 nM
[2]
  IC50: 2.12 nM
[3]
  IC50: 4.38 nM

## CNS(=O)(=O)c1ccc(C2=CCN3C(=O)c4cc(OC)c(OCCCCCC(=O)N5C[C@@H](CCl)c6c5cc(O)c5ccccc65)cc4N=C[C@@H]3C2)cc1 [Compound 72, 4-((S)-3-((6-((S)-1-(Chloromethyl)-5-hydroxy-1,2-dihydro-3H-benzo[e]indol-3-yl)-6-oxohexyl)oxy)-2-methoxy-12-oxo-6a,7,10,12-tetrahydrobenzo[e]pyrido[1,2-a][1,4]diazepin-8-yl)-N-methylbenzenesulfonamide]
[4]
  IC50: 0.0015 nM
[5]
  IC50: 0.0019 nM
[6]
  IC50: 0.0016 nM
[1]
  IC50: 0.29 nM
[2]
  IC50: 0.21 nM
[3]
  IC50: 0.32 nM
[7]; seco form
  Retention Time (min) seco form: 24.02 min and 24.04 min
[7]; spiro form
  Retention Time (min) spiro form: 17.11 min and 17.15 min
